# Tests used:
# [1] = test system: patients with advanced solid tumors; experiment: Dose-limiting toxicities, MTD and RP2D determination (BLRM-guided dose escalation); format: in vivo, human
# Text: This was a phase I, open-label, dose-escalation study of single-agent TAK-931. Dose escalation of TAK-931 was cohort based with an adaptive design using Bayesian logistic regression modeling (BLRM) with pharmacokinetic guidance. BLRM also guided MTD estimation from the second dose. Patients were enrolled in one of four dosing schedules (A, B, D, or E; Supplementary Fig. S1) to receive TAK-931. Two additional schedules were planned (C and F) but no patients were enrolled. Schedule A included an initial accelerated escalation phase. TAK-931 was administered once daily for 14 days in 21-day cycles starting at 30 mg, which doubled until a cycle 1 dose-limiting toxicity (DLT) was observed, when 2 patients experienced grade ≥2 treatment-related toxicity, or when maximum geometric mean plasma concentration (Cmax) for the cohort reached or exceeded 800 ng/mL [threshold for off-target adverse effects (hypotension) in animal toxicology studies]; then dose escalation transitioned to modified Fibonacci escalation steps. In schedule B (based on experience with schedule A), patients received TAK-931 once daily or twice daily for 7 days on, 7 days off in a 28-day cycle starting at 60 mg. In schedule D, patients received TAK-931 once daily starting at 20 mg in 21-day cycles; BLRM was not applied but further adjustments were dependent on observed safety, pharmacokinetics, and pharmacodynamics. In schedule E, patients received TAK-931 once daily for 2 days on, 5 days off starting at 100 mg in 21-day cycles. A safety expansion was permitted once MTD had been determined. Prophylactic growth factors were permitted in all schedules to manage severe and/or febrile neutropenia. TAK-931 treatment continued until unacceptable toxicity, disease progression, or patient withdrawal.
# (§1) DLTs included: cycle 1 grade ≥3 hematologic and non-hematologic events or grade 2 non-hematologic events considered by the investigator to be TAK-931-related, grade 2 ejection fraction decrease, >2 weeks delay in initiating cycle 2 (1 week for schedules D and E), and >50% TAK-931 dose reduction in cycle 1 due to treatment-related adverse events (AEs; see Supplementary Materials and Methods for full DLT criteria). Toxicity was evaluated by NCI Common Terminology Criteria for Adverse Events (version 4.03). Tumor response was measured using the RECIST (version 1.1) ([16]). Serial blood samples for pharmacokinetic analysis were collected during cycle 1 on days 1 and 7 (schedule B), 1 and 8 (schedules A and D), or 1 and 9 (schedule E). Pharmacokinetic parameters were estimated from concentration–time profiles using noncompartmental methods with WinNonlin® Phoenix™ version 8.1 (Certara, Princeton, NJ). pMCM2 was detected semiquantitatively by IHC of histologic sections of formalin-fixed, paraffin-embedded skin and tumor biopsies using anti-pMCM2 (3378-1, Epitomics Inc.; ref. [15]). Quantitative image analysis determined pMCM2 levels as “histologic score nuclei (H-score).” Skin punch biopsies (2–4 mm) were obtained during screening or predose on cycle 1, day 1 and for patients in schedules A, B, and D, postdose on any drug dosing day after 3 consecutive dosing days in cycle 1. A postdose skin biopsy was obtained on day 9 in schedule E. Fresh tumor biopsy pairs were collected predose and postdose on any dosing day after the completion of 3 consecutive dosing days in cycle 1 from patients who received doses considered to have biological effect.
# A dose-limiting toxicity (DLT) was defined as any of the following events that occurred during cycle 1 and were considered by the investigator to be related to TAK-931:
# Grade 4 neutropenia (ANC <500 cells/mm^3) lasting >7 consecutive days; if myeloid growth factors were used, the event was considered a DLT irrespective of the duration
# Grade ≥3 neutropenia (ANC <1000 cells/mm^3) with fever and/or infection, where fever was defined as a single temperature of >38.3°C or sustained temperature of ≥38°C for >1 hour […]
# [2] = test system: skin phosphorylated MCM2 (pMCM2; a CDC7 substrate); experiment: pMCM2 IHC (H-score) in skin punch biopsies; format: in vivo, human
# Text: The primary objectives were to evaluate safety, tolerability, and to identify the MTD of TAK-931. Secondary objectives were to characterize the pharmacokinetics of TAK-931, assess pharmacodynamic effects of TAK-931 by measuring basal and postdose levels of skin phosphorylated MCM2 (pMCM2; a CDC7 substrate), and assess preliminary clinical activity of TAK-931. An exploratory objective was to assess the pharmacodynamic effect of TAK-931 in fresh tumor biopsies after multiple doses of TAK-931 that were considered to have biological effect.
# as §1
# The safety population included patients who received ≥1 dose of TAK-931. The pharmacodynamic-evaluable population comprised patients from the safety population with a baseline and ≥1 additional postbaseline biopsy sample that was suitable for pMCM2 analysis. The pharmacokinetic-evaluable population included patients with sufficient dosing and TAK-931 concentration–time data to estimate pharmacokinetic parameters. The response-evaluable population included patients in the safety population with measurable disease at baseline and ≥1 postbaseline response assessment.
# [3] = animal toxicology studies; used as escalation limit; cited from earlier work
smiles,measurement,setting,value
"Cc1[nH]ncc1-c1cc2nc([C@@H]3CC4CCN3CC4)[nH]c(=O)c2s1 [TAK-931, simurosertib]",Recommended phase II dose,[1]; once daily days 1–14 in 21-day cycles,50 mg
same,Patients with DLTs (grade 4 neutropenia),[1]; schedule A,2 patients
same,Patients with DLT of grade 4 neutropenia lasting >3 days,"[1]; schedule A, 60 mg",2 of 3
same,Maximum tolerated dose (MTD),[1]; schedule A: once daily days 1–14 of 21-day cycle,50 mg
same,Patients with DLT of grade 3 febrile neutropenia,[1]; schedule B,3 n
same,Patients with DLT of grade 4 neutropenia,[1]; schedule B,1 n
same,Patients with DLTs,[1]; schedule B,4 patients
same,Patients with DLT of grade 3 febrile neutropenia,"[1]; schedule B, 80 mg",2 of 9
same,Patients with DLT of grade 4 neutropenia lasting >7 days,"[1]; schedule B, 100 mg",One of 6
same,Patients with DLT of grade 3 febrile neutropenia,"[1]; schedule B, 120 mg",one of six
same,Maximum tolerated dose (MTD),[1]; schedule B: days 1–7 and 15–21 of 28-day cycle,100 mg
same,Patients with DLT of grade 4 neutropenia,"[1]; schedule D, 40 mg",1 patient
same,Patients with DLT of grade 3 febrile neutropenia,"[1]; schedule E, 150 mg",a second patient
same,Patients with DLT of grade 4 neutropenia,"[1]; schedule E, 150 mg",1 patient
same,"Skin pMCM2 Mean H-score (StDev), Cycle 1, day 8","[2]; Schedule A (30 mg), n = 3, baseline mean H-score 18.47 (8.45)",10.93 (6.57)
same,"% of pMCM2 inhibition (Change from baseline), skin","[2]; Schedule A (30 mg), n = 3, cycle 1, day 8",40.8%
same,"Skin pMCM2 Mean H-score (StDev), Cycle 1, day 8","[2]; Schedule A (40 mg), n = 3, baseline mean H-score 19.53 (3.78)",12.87 (12.19)
same,"% of pMCM2 inhibition (Change from baseline), skin","[2]; Schedule A (40 mg), n = 3, cycle 1, day 8",34.1%
same,"Skin pMCM2 Mean H-score (StDev), Cycle 1, day 8","[2]; Schedule A (50 mg), n = 14, baseline mean H-score 10.50 (5.85)",3.76 (5.42)
same,"% of pMCM2 inhibition (Change from baseline), skin","[2]; Schedule A (50 mg), n = 14, cycle 1, day 8",64.2%
same,"Skin pMCM2 Mean H-score (StDev), Cycle 1, day 8","[2]; Schedule A (60 mg), n = 3, baseline mean H-score 10.93 (1.94)",1.00 (0.60)
same,"% of pMCM2 inhibition (Change from baseline), skin","[2]; Schedule A (60 mg), n = 3, cycle 1, day 8",90.9%
same,"Skin pMCM2 Mean H-score (StDev), Cycle 1, day 8","[2]; Schedule B (60 mg), n = 3, baseline mean H-score 4.40 (2.96)",0.67 (0.46)
same,"Skin pMCM2 Mean H-score (StDev), Cycle 1, day 8","[2]; Schedule B (80 mg), n = 9, baseline mean H-score 12.72 (2.02)",3.54 (6.19)
same,"% of pMCM2 inhibition (Change from baseline), skin","[2]; Schedule B (80 mg), n = 9, cycle 1, day 8",72.2%
same,"% of pMCM2 inhibition (Change from baseline), skin","[2]; Schedule D (20 mg), baseline n = 6, cycle 1, day 8 n = 4",77.1%
same,"Skin pMCM2 Mean H-score (StDev), Cycle 1, day 8","[2]; Schedule D (20 mg), baseline n = 6, cycle 1, day 8 n = 4, baseline mean H-score 22.05 (24.52)",5.05 (2.90)
same,"Skin pMCM2 Mean H-score (StDev), Cycle 1, day 8","[2]; Schedule D (30 mg), n = 6, baseline mean H-score 33.32 (23.43)",6.43 (5.17)
same,"% of pMCM2 inhibition (Change from baseline), skin","[2]; Schedule D (30 mg), n = 6, cycle 1, day 8",80.7%
same,Cmax threshold for off-target adverse effects (hypotension),[3],800 ng/mL

# Source: publication PMC10035389, “Safety, Tolerability, and Pharmacokinetics of TAK-931, a Cell Division Cycle 7 Inhibitor, in Patients with Advanced Solid Tumors: A Phase I First-in-Human Study” (Cancer Research Communications, 2022)
